From ChEMBL document CHEMBL4480423, “Mindapyrroles A-C, Pyoluteorin Analogues from a Shipworm-Associated Bacterium” (J Nat Prod, 2019)
pIC50: −log10 of the molar value. Converted amounts (≈) assume the structure as drawn.

Experiments:
Staphylococcus aureus [1] = experiment: Antibacterial activity against Staphylococcus aureus ATCC 6538 after 24 hrs by resazurin dye based fluorescence assay; assay type: functional; settings: ATCC 6538, 24 h
Staphylococcus aureus [2] = experiment: Antibacterial activity against methicillin-resistant Staphylococcus aureus ATCC 43300 after 24 hrs by resazurin dye based fluorescence assay; assay type: functional; settings: ATCC 43300, 24 h
Enterococcus faecium = experiment: Antibacterial activity against Enterococcus faecium ATCC […] after 24 hrs by resazurin dye based fluorescence assay; assay type: functional
MDCK = experiment: Cytotoxicity against MDCK cells assessed as reduction in cell viability after 72 hrs by MTT assay; assay type: cell-based; settings: Canis lupus familiaris
[3] = system: Staphylococcus epidermidis; experiment: Antibacterial activity against Staphylococcus epidermidis ATCC 35984 after 24 hrs by resazurin dye based fluorescence assay; assay type: functional; settings: ATCC 35984, 24 h
Bacillus subtilis = experiment: Antibacterial activity against Bacillus subtilis ATCC 6051 after 24 hrs by resazurin dye based fluorescence assay; assay type: functional; settings: ATCC 6051, 24 h
Pseudomonas aeruginosa = experiment: Antibacterial activity against Pseudomonas aeruginosa ATCC 15442 after 24 hrs by resazurin dye based fluorescence assay; assay type: functional; settings: ATCC 15442, 24 h

SMILES	MIC (Staphylococcus aureus [1])	MIC (Staphylococcus aureus [2])	MIC (Enterococcus faecium)	pIC50 (MDCK)	MIC [3]	MIC (Bacillus subtilis)	MIC (Pseudomonas aeruginosa)
O=C(c1cc(Cl)c(Cl)[nH]1)c1c(O)ccc(Cc2ccc(O)c(C(=O)c3cc(Cl)c(Cl)[nH]3)c2O)c1O	32 µg/mL (≈ 57.5 µM)	> 32 µg/mL	32 µg/mL (≈ 57.5 µM)	4.36	32 µg/mL (≈ 57.5 µM)	32 µg/mL (≈ 57.5 µM)	> 32 µg/mL
O=C(c1cc(Cl)c(Cl)[nH]1)c1c(O)ccc(Cc2cc(C(c3csc(-c4ccccc4O)n3)c3ccc(O)c(C(=O)c4cc(Cl)c(Cl)[nH]4)c3O)c(O)c(C(=O)c3cc(Cl)c(Cl)[nH]3)c2O)c1O (stereo not given)	4 µg/mL (≈ 3.94 µM)	8 µg/mL (≈ 7.88 µM)	> 32 µg/mL	4.55	2 µg/mL (≈ 1.97 µM)	8 µg/mL (≈ 7.88 µM)	> 32 µg/mL
O=C(c1cc(Cl)c(Cl)[nH]1)c1c(O)ccc(C(c2csc(-c3ccccc3O)n2)c2ccc(O)c(C(=O)c3cc(Cl)c(Cl)[nH]3)c2O)c1O	4 µg/mL (≈ 5.47 µM)	4 µg/mL (≈ 5.47 µM)	8 µg/mL (≈ 10.9 µM)	4.04	2 µg/mL (≈ 2.73 µM)	4 µg/mL (≈ 5.47 µM)	8 µg/mL (≈ 10.9 µM)
O=C(N[C@H](CO)[C@H](O)c1ccc([N+](=O)[O-])cc1)C(Cl)Cl [CHLORAMPHENICOL]	–	–	8 µg/mL (≈ 24.8 µM)	–	–	–	–
CCn1cc(C(=O)O)c(=O)c2ccc(C)nc21 [NALIDIXIC ACID]	–	–	–	–	–	–	4 µg/mL (≈ 17.2 µM)
Cc1onc(-c2ccccc2)c1C(=O)N[C@@H]1C(=O)N2[C@@H]1SC(C)(C)[C@@H]2C(=O)O [OXACILLIN]	0.13 µg/mL (≈ 0.324 µM)	8 µg/mL (≈ 19.9 µM)	> 32 µg/mL	–	2 µg/mL (≈ 4.98 µM)	1 µg/mL (≈ 2.49 µM)	–
O=C(c1cc(Cl)c(Cl)[nH]1)c1c(O)cccc1O [PYOLUTEORIN]	4 µg/mL (≈ 14.7 µM)	8 µg/mL (≈ 29.4 µM)	8 µg/mL (≈ 29.4 µM)	5.32	4 µg/mL (≈ 14.7 µM)	8 µg/mL (≈ 29.4 µM)	16 µg/mL (≈ 58.8 µM)
